Data from US12123059B2, “Predicting cardiotoxicity risk in cancer patients receiving anthracyclines chemotherapy” (Fundación Para La Investigación Del Hospital Universitario …, priority 2018, dated 2024).

Tested on: human cardiomyocytes
Assay: Modulation of miRNA copy number by Doxorubicin in human cardiomyocytes in culture
Type: cell-based
Conditions: Doxorubicin 1 μM for 24 h, FIG. 4
Procedure: FIG. 4. (A, B) Graphics showing modulation of miRNAs by Doxorubicin in human cardiomyocytes and patients' serum. Left panels show copy number of indicated miRNAs in cardiomyocytes in culture before or after the addition of Doxorubicin (1 μM) for 24 h. Right panels show copy numbers of indicated miRNAs as detected by RNAseq in serum from control patients and cases and expressed as mean±SEM (N=10 in each case) before or after completion of anthracycline chemotherapy. Only miRNAs showing a similar tendency in cells and patients' serum are illustrated. *P<0.05.
The specific signature of miRNAs has been detected in serum. Since the pathways related to miRNAs are linked to cardiomyocytes, the copy number of the miRNAs of interest in human cardiomyocytes was also measured. As observed in FIG. 4, the miRNAs previously detected in serum were also present in human cardiomyocytes (left panels) and their expression level is altered when cells are damaged by Doxorubicin. […] As shown in the right panel of FIG. 4, the copy number of miRNA-22-3p increases both in cells and serum of patients after anthracycline treatment whereas miRNA-30b, miRNA-148a, miRNA-150-5p, and miRNA-4732-3p decrease their expression levels. […] Indeed, this set of miRNAs regulates genes involved in the aforementioned biological pathways (FIG. 5)

- copy number of miRNA-22-3p: increases
- expression level of miRNA-30b: decrease
- expression level of miRNA-148a: decrease
- expression level of miRNA-150-5p: decrease
- expression level of miRNA-4732-3p: decrease
SMILES: COc1cccc2c1C(=O)c1c(O)c3c(c(O)c1C2=O)C[C@@](O)(C(=O)CO)C[C@@H]3O[C@H]1C[C@H](N)[C@H](O)[C@H](C)O1 [Doxorubicin]
